Active and inactive are the calls of the source.
Legend:
[1] = biological target: T1, Short transient receptor potential channel 4 (Mus musculus, UniProt Q9QUQ5); experiment: block of DAMGO-driven TRPC4 calcium entry – cell-based, HEK293 TRPC4/mu-opioid, Fluo-4 calcium, dose response (AID 434942); format: functional;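 note: potency of inhibitors blocking the TRPC4 calcium response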
T1 sequence (Q9QUQ5 whole entry): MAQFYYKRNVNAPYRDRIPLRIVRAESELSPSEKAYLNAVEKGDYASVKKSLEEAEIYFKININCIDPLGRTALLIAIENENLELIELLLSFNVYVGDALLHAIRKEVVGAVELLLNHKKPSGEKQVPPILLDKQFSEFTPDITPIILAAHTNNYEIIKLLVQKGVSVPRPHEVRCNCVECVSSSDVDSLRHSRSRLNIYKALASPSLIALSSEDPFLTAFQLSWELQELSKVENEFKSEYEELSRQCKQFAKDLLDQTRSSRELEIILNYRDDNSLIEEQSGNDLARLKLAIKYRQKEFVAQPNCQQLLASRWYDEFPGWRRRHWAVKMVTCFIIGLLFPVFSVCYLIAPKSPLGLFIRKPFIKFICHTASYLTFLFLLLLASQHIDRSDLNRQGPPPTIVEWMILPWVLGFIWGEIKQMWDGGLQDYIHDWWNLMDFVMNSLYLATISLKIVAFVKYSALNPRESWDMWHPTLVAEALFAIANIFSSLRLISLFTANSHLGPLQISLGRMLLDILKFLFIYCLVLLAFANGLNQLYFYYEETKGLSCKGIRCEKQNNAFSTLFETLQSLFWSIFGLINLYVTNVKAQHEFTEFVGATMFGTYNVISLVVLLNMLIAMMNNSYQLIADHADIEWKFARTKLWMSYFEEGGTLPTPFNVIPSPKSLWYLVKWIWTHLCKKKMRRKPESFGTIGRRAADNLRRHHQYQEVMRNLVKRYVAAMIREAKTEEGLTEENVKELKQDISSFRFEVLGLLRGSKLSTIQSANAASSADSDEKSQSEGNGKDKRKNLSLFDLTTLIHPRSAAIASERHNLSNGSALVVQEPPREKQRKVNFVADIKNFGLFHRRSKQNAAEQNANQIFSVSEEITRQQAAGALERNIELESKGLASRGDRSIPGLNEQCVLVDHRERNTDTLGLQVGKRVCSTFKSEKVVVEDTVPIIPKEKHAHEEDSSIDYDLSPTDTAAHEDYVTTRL

[2] = biological target: T2, Calpain-2 catalytic subunit (Sus scrofa, UniProt P43367); experiment: m-calpain protease blockers, concentration series – biochemical, fluorogenic peptide substrate, dose response (AID 1420); format: functional
T2 sequence (P43367 whole entry): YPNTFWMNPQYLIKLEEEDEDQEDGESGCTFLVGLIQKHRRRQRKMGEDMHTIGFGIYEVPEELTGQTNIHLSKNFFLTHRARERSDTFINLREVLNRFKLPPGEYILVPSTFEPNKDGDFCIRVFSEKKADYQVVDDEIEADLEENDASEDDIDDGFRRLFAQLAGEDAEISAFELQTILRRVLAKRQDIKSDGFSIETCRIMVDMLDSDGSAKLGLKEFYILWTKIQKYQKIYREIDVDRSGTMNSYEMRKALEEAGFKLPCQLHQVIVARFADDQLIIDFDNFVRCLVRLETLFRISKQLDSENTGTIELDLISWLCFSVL

[3] = viability loss in THP-1 monocytes – THP-1 cells, cytotoxicity control for Vif-APOBEC3G degradation inhibitor project, dose response (AID 1117359); format: functional; conditions: THP-1
[4] = biological target: T3, Rac GTPase-activating protein 1 (Homo sapiens, UniProt Q9H0H5); experiment: blockers of MgcRacGAP-driven Rac1 GTP hydrolysis – biochemical, ADP Hunter fluorescence, primary and confirmatory, confirmation (AID 624330); format: functional
T3 sequence (Q9H0H5 whole entry): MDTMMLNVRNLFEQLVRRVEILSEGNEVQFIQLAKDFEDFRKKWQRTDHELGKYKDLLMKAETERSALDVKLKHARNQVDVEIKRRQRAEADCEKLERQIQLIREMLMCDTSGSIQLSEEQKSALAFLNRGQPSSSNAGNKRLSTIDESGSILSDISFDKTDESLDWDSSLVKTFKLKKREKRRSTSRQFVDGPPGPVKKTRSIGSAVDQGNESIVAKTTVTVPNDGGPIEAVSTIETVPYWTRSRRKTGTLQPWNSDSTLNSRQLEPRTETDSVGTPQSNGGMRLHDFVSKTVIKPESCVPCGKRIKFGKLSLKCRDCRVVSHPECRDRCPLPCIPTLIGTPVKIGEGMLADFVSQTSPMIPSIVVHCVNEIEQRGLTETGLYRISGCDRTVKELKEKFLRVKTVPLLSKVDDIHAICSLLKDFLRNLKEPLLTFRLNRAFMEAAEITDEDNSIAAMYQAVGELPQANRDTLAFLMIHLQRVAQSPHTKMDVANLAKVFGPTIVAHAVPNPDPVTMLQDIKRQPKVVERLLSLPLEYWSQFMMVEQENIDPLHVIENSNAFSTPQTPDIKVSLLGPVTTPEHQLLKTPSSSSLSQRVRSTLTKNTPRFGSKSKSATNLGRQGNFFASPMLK

[5] = A cytotoxicity screen of small molecule inhibitors of the PhoP region in Salmonella typhi identified in the primary screen. [Related pubchem assays: 1850, 1864, 1985 ]; format: functional
[6] = DRD fibroblast viability loss – cell-based, non-viral oncogenic, luminescence, dose response (AID 1934); format: functional; conditions: Homo sapiens
BJ [7] = experiment: cells; format: functional, cell-based; conditions: Homo sapiens
BJ [8] = experiment: BJ-TERT-LT-ST fibroblast viability loss – cell-based, RAS-independent, luminescence, dose response (AID 1935); format: functional; conditions: Homo sapiens;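 note: BJ fibroblasts immortalized with TERT plus LT and ST oncogenes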
BJ [9] = experiment: BJ-TERT fibroblast viability loss – cell-based, RAS-independent, luminescence, dose response (AID 1933); format: functional; conditions: Homo sapiens
Streptococcus = experiment: GAS UMAA2166 growth inhibition – luminescence, BacTiterGlo, counter-screen for streptokinase expression inhibitor project, dose response (AID 1915); format: functional, organism-based;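 note: potency for reduction of bacterial viability or growth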
HEK293 [10] = experiment: NOD2 signaling inhibitors in MDP-stimulated cells, cell-based, uHTS, luminescence (AID 2001); format: functional; conditions: Homo sapiens
[11] = test system: Streptococcus sp. 'group A'; experiment: Streptococcus pyogenes SK(-)GAS viability under kanamycin – luminescence, BacTiterGlo, confirmation, counter-screen for streptokinase expression inhibitor project, dose response (AID 1900); format: functional, organism-based
HEK293 [12] = experiment: cells; format: functional, cell-based; conditions: Homo sapiens
Streptokinase A = biological target: T4, Streptokinase A (Streptococcus pyogenes serotype M1, UniProt P10520); experiment: viability-normalized secreted streptokinase activity reduction – plasminogen activation absorbance, OD405, dose response (AID 1914); format: functional, Streptococcus pyogenes M1 GAS;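 note: secreted streptokinase activity via plasminogen activation per viability signal from cell pellet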
T4 sequence (P10520 whole entry): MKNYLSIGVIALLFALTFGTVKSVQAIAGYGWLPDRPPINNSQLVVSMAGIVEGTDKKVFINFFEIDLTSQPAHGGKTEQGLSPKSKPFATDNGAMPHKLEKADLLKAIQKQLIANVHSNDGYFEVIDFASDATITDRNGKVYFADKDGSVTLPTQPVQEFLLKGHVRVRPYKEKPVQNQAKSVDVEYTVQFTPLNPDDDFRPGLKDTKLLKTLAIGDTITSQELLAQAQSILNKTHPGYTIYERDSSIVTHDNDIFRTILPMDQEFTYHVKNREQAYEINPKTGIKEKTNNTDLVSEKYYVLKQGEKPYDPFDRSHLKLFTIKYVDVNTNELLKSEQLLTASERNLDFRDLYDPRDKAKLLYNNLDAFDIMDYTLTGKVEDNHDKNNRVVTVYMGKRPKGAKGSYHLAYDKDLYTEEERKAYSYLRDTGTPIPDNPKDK

HEK293 [13] = experiment: cells; format: functional, cell-based; conditions: Homo sapiens; remark: listed apart in the source
HEK293 [14] = experiment: inhibition of NOD1-driven NF-kB reporter – cell-based, luminescence, uHTS, primary screen (AID 1578); format: functional; conditions: Homo sapiens
HEK293 [15] = experiment: cells; format: functional, cell-based; conditions: Homo sapiens; remark: listed apart in the source
[16] = biological target: Nucleotide-binding oligomerization domain-containing protein 2 (Homo sapiens, UniProt Q9HC29); experiment: inhibition of NOD2-driven NF-kB reporter – cell-based, luminescence, uHTS, HEK293 (AID 1566); format: functional
[17] = alpha-synuclein stem-loop luciferase translation blockers – H4 neuroglioma cells, luminescence, confirmation (AID 1988); format: functional, cell-based
[18] = HEK-293T cell viability reduction – luminescence, B-cell screen hits, cytotoxicity control for BCR NF-kB inhibitor project, dose response (AID 489021); format: functional, cell-based;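 note: HEK-293T cells carrying an NF-kB luciferase reporter; cells exposed to compound for about 14 hours before viability readout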
[19] = Luminescence Cell-Based Dose Response HTS to Identify Inhibitors of 5'UTR Stem-Loop Driven Prion Protein mRNA Translation in H4 Neuroglioblastoma Cells. [Related pubchem assays: 1827 (Project Summary), 1813 (Primary HTS)]; format: functional
[20] = luciferase reporter signal suppression in cells – H4 neuroglioma cells, luminescence, dose response (AID 1990); format: functional, cell-based
[21] = NIH3T3 cell viability loss – ATP luminescence, mouse fibroblasts, counter-screen, dose response (AID 2010); format: functional, cell-based;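 note: cells exposed to compound for about 90 hours before reading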
[22] = Trypanosoma cruzi growth suppression in host cells – NIH3T3 host cells, beta-gal luminescence, confirmation (AID 2044); format: functional, cell-based;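 note: intracellular parasites grown in NIH/3T3 mouse fibroblasts as host cells; luminescent beta-galactosidase reporter signal from transgenic T. cruzi replicating inside host cells; inhibitors lower the luminescence signal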
[23] = microbe, parasite or virus in culture; format: functional; conditions: Mycobacterium tuberculosis
[24] = HEK-293T viability loss after treatment – luminescence, T-cell screen hits, cytotoxicity control for TCR NF-kB inhibitor project, dose response (AID 489026); format: functional, cell-based;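 note: cells exposed to compound about 14 hours before the viability readout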
[25] = biological target: Peroxisome proliferator-activated receptor gamma/Nuclear receptor coactivator 1 (Homo sapiens, UniProt P37231); format: functional;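 note: agonist potency as compounds enhance coactivator SRC-1 recruitment to PPARgamma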
Chain of Peroxisome proliferator-activated receptor gamma/Nuclear receptor coactivator 1 (P37231 whole entry): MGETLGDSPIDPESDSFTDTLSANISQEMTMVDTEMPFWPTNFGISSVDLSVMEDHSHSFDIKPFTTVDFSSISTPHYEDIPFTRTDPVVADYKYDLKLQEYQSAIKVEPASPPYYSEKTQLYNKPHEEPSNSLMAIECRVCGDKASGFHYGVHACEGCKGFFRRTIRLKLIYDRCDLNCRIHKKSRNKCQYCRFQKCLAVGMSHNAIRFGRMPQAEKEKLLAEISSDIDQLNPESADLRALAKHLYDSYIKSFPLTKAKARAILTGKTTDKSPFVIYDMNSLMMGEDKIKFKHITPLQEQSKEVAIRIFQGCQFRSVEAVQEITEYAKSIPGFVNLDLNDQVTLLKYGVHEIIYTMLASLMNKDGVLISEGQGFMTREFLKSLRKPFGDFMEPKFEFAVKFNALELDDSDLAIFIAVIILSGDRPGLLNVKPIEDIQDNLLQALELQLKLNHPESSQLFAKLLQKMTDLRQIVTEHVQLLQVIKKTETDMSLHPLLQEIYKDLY
Chain of Peroxisome proliferator-activated receptor gamma/Nuclear receptor coactivator 1 (Q15788 whole entry, further chain): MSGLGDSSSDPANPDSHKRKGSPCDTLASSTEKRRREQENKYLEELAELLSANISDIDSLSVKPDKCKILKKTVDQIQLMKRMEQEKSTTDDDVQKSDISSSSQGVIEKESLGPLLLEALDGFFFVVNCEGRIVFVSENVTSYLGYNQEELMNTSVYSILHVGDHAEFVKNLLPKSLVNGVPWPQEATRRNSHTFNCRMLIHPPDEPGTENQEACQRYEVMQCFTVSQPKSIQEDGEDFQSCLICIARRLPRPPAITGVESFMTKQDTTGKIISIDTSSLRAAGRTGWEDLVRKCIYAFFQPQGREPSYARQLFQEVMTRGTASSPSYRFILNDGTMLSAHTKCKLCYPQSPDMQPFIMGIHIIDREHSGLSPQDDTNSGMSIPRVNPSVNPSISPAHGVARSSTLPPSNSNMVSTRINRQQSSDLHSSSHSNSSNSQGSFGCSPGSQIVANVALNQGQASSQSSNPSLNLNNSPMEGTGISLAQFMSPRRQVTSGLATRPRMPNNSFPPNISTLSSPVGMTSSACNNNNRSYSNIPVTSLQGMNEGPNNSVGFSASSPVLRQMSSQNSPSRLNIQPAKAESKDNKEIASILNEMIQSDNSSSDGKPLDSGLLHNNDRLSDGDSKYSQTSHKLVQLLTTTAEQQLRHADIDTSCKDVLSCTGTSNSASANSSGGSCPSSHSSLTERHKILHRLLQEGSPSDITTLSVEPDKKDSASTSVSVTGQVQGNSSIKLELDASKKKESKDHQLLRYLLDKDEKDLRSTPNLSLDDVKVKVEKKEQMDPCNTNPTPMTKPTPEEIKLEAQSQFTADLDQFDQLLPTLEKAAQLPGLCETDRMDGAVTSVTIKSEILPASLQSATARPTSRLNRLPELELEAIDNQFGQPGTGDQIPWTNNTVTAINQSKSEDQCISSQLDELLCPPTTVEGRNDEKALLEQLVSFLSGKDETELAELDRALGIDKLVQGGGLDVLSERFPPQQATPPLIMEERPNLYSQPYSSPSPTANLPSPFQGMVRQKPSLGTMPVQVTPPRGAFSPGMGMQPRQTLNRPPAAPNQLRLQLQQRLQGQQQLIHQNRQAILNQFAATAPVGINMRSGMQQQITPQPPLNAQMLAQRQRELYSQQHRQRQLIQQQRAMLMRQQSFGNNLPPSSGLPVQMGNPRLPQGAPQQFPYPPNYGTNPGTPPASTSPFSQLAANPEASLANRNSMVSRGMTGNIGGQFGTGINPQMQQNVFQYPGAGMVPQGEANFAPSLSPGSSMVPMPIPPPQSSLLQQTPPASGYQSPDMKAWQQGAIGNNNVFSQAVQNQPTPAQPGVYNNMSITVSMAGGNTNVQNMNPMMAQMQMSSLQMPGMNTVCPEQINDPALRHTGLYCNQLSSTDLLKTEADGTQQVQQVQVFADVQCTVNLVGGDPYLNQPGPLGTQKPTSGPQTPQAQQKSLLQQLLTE

[26] = biological target: Peroxisome proliferator-activated receptor gamma/Nuclear receptor coactivator 2 (Homo sapiens, UniProt P37231); format: functional;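 note: agonist potency for raising coactivator recruitment to the receptor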
Chain of Peroxisome proliferator-activated receptor gamma/Nuclear receptor coactivator 2 (P37231 whole entry): as the sequence (P37231 whole entry) above
Chain of Peroxisome proliferator-activated receptor gamma/Nuclear receptor coactivator 2 (Q15596 whole entry, further chain): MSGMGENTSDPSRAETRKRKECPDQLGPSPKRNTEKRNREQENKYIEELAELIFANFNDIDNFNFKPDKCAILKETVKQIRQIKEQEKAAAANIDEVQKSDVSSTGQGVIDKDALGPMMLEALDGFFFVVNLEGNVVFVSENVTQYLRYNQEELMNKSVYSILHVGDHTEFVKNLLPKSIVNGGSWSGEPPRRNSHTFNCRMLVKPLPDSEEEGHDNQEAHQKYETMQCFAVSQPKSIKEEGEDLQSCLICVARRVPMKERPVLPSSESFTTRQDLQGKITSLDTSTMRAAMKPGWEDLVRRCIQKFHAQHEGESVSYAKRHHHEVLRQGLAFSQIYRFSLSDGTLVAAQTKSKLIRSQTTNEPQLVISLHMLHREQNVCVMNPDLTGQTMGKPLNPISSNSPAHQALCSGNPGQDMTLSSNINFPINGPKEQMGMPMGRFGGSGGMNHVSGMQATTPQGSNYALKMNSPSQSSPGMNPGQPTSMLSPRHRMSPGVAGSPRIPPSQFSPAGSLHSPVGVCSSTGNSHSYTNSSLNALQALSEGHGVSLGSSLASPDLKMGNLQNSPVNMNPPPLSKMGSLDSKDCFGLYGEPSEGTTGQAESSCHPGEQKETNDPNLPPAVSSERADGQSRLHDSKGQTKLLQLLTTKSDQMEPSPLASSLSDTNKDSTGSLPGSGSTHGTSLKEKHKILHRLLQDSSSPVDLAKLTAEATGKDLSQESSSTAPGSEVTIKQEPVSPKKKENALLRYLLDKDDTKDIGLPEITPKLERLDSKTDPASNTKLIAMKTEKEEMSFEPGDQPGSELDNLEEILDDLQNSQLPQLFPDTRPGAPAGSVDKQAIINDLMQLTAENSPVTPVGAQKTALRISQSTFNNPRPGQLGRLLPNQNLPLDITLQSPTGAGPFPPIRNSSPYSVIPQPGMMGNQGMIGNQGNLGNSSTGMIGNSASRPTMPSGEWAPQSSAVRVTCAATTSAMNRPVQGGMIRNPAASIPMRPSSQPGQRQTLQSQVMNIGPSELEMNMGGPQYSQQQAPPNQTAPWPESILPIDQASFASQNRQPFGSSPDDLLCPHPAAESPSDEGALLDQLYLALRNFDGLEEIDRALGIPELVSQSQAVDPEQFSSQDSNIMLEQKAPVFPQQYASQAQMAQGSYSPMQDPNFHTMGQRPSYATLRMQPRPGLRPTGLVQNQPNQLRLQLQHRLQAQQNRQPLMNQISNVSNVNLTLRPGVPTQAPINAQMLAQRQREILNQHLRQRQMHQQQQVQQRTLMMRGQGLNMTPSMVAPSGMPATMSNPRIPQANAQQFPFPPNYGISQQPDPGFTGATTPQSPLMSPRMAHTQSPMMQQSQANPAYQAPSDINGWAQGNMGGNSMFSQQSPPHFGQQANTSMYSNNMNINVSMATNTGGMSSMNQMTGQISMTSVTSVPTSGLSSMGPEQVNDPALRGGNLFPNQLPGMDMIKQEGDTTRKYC

[27] = biological target: Peroxisome proliferator-activated receptor gamma/Nuclear receptor coactivator 3 (Homo sapiens, UniProt P37231); format: functional;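 note: agonist potency for raising coactivator recruitment to the receptor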
Cytochrome P450 3A4 = Cytochrome P450 3A4 (Homo sapiens, UniProt P08684);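 note: CYP3A4 tested as one member of a cytochrome P450 panel screen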
Chain of Cytochrome P450 3A4 (P08684 whole entry): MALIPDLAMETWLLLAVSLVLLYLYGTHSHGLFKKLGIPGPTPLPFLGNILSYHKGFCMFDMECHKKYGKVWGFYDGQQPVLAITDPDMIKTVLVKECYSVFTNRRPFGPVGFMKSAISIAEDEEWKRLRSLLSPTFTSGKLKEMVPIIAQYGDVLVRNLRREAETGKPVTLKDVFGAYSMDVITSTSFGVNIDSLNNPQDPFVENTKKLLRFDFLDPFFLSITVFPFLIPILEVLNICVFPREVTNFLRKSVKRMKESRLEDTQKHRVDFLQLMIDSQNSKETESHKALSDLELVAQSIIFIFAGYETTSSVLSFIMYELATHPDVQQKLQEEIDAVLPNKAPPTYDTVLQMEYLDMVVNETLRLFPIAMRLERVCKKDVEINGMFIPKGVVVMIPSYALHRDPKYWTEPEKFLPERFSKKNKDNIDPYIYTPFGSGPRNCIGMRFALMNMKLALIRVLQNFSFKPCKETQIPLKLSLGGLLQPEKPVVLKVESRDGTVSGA

Cytochrome P450 2C19 = Cytochrome P450 2C19 (Homo sapiens, UniProt P33261); experiment: Cytochrome panel assay with activity outcomes. Panel member name: p450-cyp2c19 Compounds with AC50 equal or less than 10 uM are considered active; format: functional; conditions: read-out: AC50
Chain of Cytochrome P450 2C19 (P33261 whole entry): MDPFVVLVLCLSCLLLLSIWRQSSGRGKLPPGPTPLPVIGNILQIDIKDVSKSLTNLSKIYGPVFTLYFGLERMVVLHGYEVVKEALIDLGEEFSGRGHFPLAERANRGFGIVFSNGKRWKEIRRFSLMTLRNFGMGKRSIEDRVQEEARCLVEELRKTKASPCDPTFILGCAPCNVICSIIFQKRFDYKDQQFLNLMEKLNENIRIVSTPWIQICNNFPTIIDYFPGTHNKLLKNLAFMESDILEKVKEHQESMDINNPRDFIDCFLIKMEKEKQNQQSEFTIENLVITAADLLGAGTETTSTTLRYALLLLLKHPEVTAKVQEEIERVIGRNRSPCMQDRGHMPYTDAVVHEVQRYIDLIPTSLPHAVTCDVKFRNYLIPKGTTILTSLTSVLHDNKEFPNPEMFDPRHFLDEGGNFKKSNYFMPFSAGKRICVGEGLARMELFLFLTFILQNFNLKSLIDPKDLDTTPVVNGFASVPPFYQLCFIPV

O=C(COc1ccc(F)cc1)c1c(O)cc(O)cc1O
EC50 [1]: 3.35 µM (active)

CCOCCCNc1ccc(N2C(=O)C3CCCCC3C2=O)cc1[N+](=O)[O-] (stereo not given)
IC50 [2]: 9.18 µM (active)

S=C(Nc1ccccc1)Nc1cc(Cl)ccc1Oc1ccccc1
EC50 [1]: 4.73 µM (active)

CCCc1nc(SCC(=O)c2ccccc2)c2c(=O)n(C)c(=O)n(C)c2n1
IC50 [2]: 7.89 µM (active)

COc1ccc2cc(C(=O)Nc3ccc(O)cc3)sc(=O)c2c1OC
CC50 [3]: 25 µM (active) | IC50 [4]: 24.8 µM (active)

CCC(=O)N(Cc1cc2cc(OC)ccc2nc1O)c1ccc(C)cc1C
EC50 [5]: > 50 µM (active)

CC(CCc1ccccc1)NC(=O)COC(=O)c1ccc(NC(=O)CC#N)cc1 (stereo not given)
EC50 [6]: > 150 µM (not active) | EC50 (BJ [7]): > 150 µM (not active) | EC50 (BJ [8]): > 150 µM (inconclusive) | EC50 (BJ [9]): > 150 µM (not active)

Cc1cc(C)c(NC(=O)COC(=O)Cc2ccsc2)c(C)c1
IC50 [2]: > 50 µM (not active)

CN(C)C=O.N#Cc1ccc(Cl)cc1NC(=O)CSc1nc(O)c2c(C(F)(F)F)cc(-c3cccs3)nc2n1
EC50 (Streptococcus): > 150 µM (not active) | IC50 (HEK293 [10]): 6.22 µM (inactive) | EC50 [11]: 7.34 µM (active) | IC50 (HEK293 [12]): 9.55 µM (active) | EC50 (Streptokinase A): > 150 µM (not active) | IC50 (HEK293 [13]): > 20 µM (inactive) | EC50 (HEK293 [14]): 5.63 µM (active) | IC50 (HEK293 [15]): > 20 µM (inactive) | EC50 [16]: 8.42 µM (active)

Cc1ccc(/C=C2\SC(=S)N(CCCC(=O)Nc3cc(C)on3)C2=O)cc1
EC50 [17]: 14.6 µM (active) | IC50 [18]: > 80 µM (inactive) | EC50 [19]: 51.7 µM (active) | EC50 [20]: 15.3 µM (active)

C=CCSc1nnc2n(-c3ccccc3OC)c(=O)c3c4c(sc3n12)CCC4
EC50 [1]: 4.73 µM (active)

COC(=O)c1sccc1N=C(S)NCc1ccc(Cl)cc1
EC50 [5]: > 50 µM (active)

N=c1sc2c(n1Cc1ccccc1)CCCC2
EC50 [5]: > 50 µM (active)

Cc1nc2nc(COc3ccccc3)nn2c(C)c1Cl
EC50 [5]: > 50 µM (active)

Cc1c(CN2CCC(CO)(Cc3cccc(C(F)(F)F)c3)CC2)c2ccccc2n1C
CC50 [3]: 9.2 µM (active) | EC50 [21]: > 60 µM (not active) | EC50 [22]: 0.969 µM (active) | CC50 [23]: 18.1 µM (active)

CC(=O)Nc1ccc(S(=O)(=O)N2c3ccc(F)cc3CCC2C)cc1 (stereo not given)
EC50 [6]: 16 µM (active) | IC50 [24]: > 80 µM (inactive) | EC50 (BJ [7]): 92.3 µM (active) | EC50 (BJ [8]): 16 µM (active) | EC50 (BJ [9]): 13.5 µM (active)

CCCCC(CC)c1nnc(NC(=O)c2cccs2)s1 (stereo not given)
EC50 [1]: 5.31 µM (active) | EC50 [25]: > 79.4 µM (not active) | EC50 [26]: > 79.4 µM (not active) | IC50 [2]: 8.06 µM (not active) | EC50 [27]: > 79.4 µM (not active)

CNC(=O)CSc1nc2nn(-c3ccccc3)c(=O)c-2c2n1CCCCC2
IC50 [18]: > 80 µM (inactive)

Cn1/c(=N\C(=O)CCl)sc2ccccc21
IC50 [18]: > 80 µM (inactive) | EC50 [21]: < 6 µM (inconclusive) | AC50 (Cytochrome P450 3A4): 15.8 µM (inconclusive) | EC50 [22]: 0.973 µM (active) | AC50 (Cytochrome P450 2C19): 20 µM (inconclusive)

N=c1ccn2c(n1)O[C@H]1[C@H](O)[C@@H](CO)O[C@H]12
IC50 [18]: > 80 µM (inactive)

From ChEMBL document CHEMBL1201862, “PubChem BioAssay data set” (2004)
